Data taken from patent US8318792B2, “Therapeutic agent for amyotrophic lateral sclerosis” (Nippon Medical School Foundation, priority 2006, dated 2012).

Test system: G1H-G93A transgenic mice
Experiment: Clinical symptomatological evaluation (day of onset, survival period, disease period, stage periods)
Assay type: in vivo, mouse
Conditions: for time periods for the respective stages in comparison to placebo group / disease period extending effect in comparison to placebo group / onset delaying effect in comparison to placebo group / survival period extending effect in comparison to placebo group: Mann-Whitney's U test; for disease period extending effect in comparison to placebo group / onset delaying effect in comparison to placebo group / survival period extending effect in comparison to placebo group: log-rank test; for day of onset / disease period / survival period / time period of clinical symptomatological stage 1 / time period of clinical symptomatological stage 2 / time period of clinical symptomatological stage 3 / time period of clinical symptomatological stage 4 / time period of clinical symptomatological stage 5: average±SD
Method: 1) The procedure of concentration adjustment, and the amount and the procedure of administration of the compound (a) were as described below. As a base, 0.5% methylcellulose is prepared. 5 mg of the compound (a) is pulverized in an agate mortar, and then a small amount of 0.5% methylcellulose is added to form a complete suspension. Subsequently, a small amount of 0.5% methylcellulose is added gradually, so that finally 5 mg of the compound (a) is suspended in 10 mL of 0.5% methylcellulose. A sample of 5 mg of compound (a)/10 mL of 0.5% methylcellulose (5 mg/10 mL) was prepared by the above-described procedure, and thus the compound (a) was orally administered once a day in a dose of 5 mg per kg of the mouse body weight (5 mg/kg).
As the experimental animal, male transgenic mice over-expressing a high copy number (25 copies) of mutated human SOD1 gene with a G93A point mutation, i.e., B6SJL-TgN [SOD1-G93A]1Gur (G1H-G93A transgenic mice, JR2726; Hemizygote) (Gurney M E, et al., Science, 264, 1772-1775, 1994), were purchased from Jackson Laboratory (Bar Harbor, USA) and used. At the same time, wild-type male mice from the same litter, B6SJL-TgN[SOD1-G93A]1Gur (Wild-type), were also purchased from Jackson Laboratory and used.
The mice were subjected to a clinical symptomatological evaluation everyday. The clinical symptomatological evaluation was performed from one week after the arrival from Jackson Laboratory. […] The day of onset, the survival period and the disease period were indicated by the number of days. In regard to the indication of the number of days of the disease period, one day (one disease day) corresponds to within 24 hours from the onset (the “onset” is determined by the observation of the clinical symptomatological evaluation stage 1), and two days (two disease days) corresponds to more than 24 hours after and within 48 hours from the onset. Subsequent disease days after the onset were determined in the same manner.
The mice were divided into seven experimental groups, to which a placebo, the compound (a), compound (b), compound (c) or allopurinol was administered. That is, the seven groups consist of: an experimental group administered with placebo; a treatment experimental group administered with compound (a) before onset; a treatment experimental group administered with compound (a) after onset; a treatment experimental group administered with compound (b) before onset; a treatment experimental group administered with compound (c) before onset; a treatment experimental group administered with compound (c) after onset; and a treatment group administered with allopurinol before onset. Details of the respective groups will be described in the following.
Ten G1H-G93A transgenic mice were used. From the 80th day after birth, 5 mg/kg of the compound (a) was orally administered everyday. […]
Ten G1H-G93A transgenic mice were used. From the 80th day after birth, 5 mg/kg of the compound (b) was orally administered everyday.
Ten G1H-G93A transgenic mice were used. From the 80th day after birth, 5 mg/kg of the compound (c) was orally administered everyday. […]
Ten G1H-G93A transgenic mice were used. From the 80th day after birth, 5 mg/kg of allopurinol was orally administered everyday.
In regard to the results of the clinical symptomatological evaluation, the day of onset, the survival period (days taken to show quadriplegia and to reach the moribund state), the disease period (days taken to show quadriplegia and to reach the moribund state, from the day of onset), and the time periods for the respective stages of the clinical symptomatological evaluation, were indicated by the average±standard deviation. In regard to the results of the exercise tolerance test, the score values of the respective exercise tolerance tests, including the extension reflex test, inclined plane test, footprint test, rotarod test and beam balance test, were indicated by the average±standard deviation. […]

[1] = 5 mg/kg oral daily from 80th day after birth (before onset)
[2] = 5 mg/kg oral daily from the day of onset (after onset)
[3] = 5 mg/kg oral once a day from 80th day after birth (before onset)
[4] = 5 mg/kg oral once a day from the onset (after onset)

SMILES | time periods for the respective stages in comparison to placebo group [1] | disease period extending effect in comparison to placebo group [1] | onset delaying effect in comparison to placebo group [1] | survival period extending effect in comparison to placebo group [1] | time periods for the respective stages in comparison to placebo group [2] | disease period extending effect in comparison to placebo group [2] | survival period extending effect in comparison to placebo group [2] | day of onset [3] [days] | disease period [3] [days] | survival period [3] [days] | time period of clinical symptomatological stage 1 [3] [days] | time period of clinical symptomatological stage 2 [3] [days] | time period of clinical symptomatological stage 3 [3] [days] | time period of clinical symptomatological stage 4 [3] [days] | time period of clinical symptomatological stage 5 [3] [days] | day of onset [4] [days] | disease period [4] [days] | survival period [4] [days] | time period of clinical symptomatological stage 1 [4] [days] | time period of clinical symptomatological stage 2 [4] [days] | further results
Cc1nc(-c2ccc(OCC(C)C)c(C#N)c2)sc1C(=O)O [compound (c), 2-[3-cyano-4-(2-methylpropoxy)phenyl]-4-methyl-5-thiazolecarboxylic acid] | extended period of the respective stages with significant difference | significant extension of the disease period | significant delaying of the day of onset | significant extension of the survival period | extended period of stage 3 (P<0.05, Mann-Whitney's U test) and stage 4 (P<0.05, Mann-Whitney's U test) with significant differences | disease period extending effect | survival period extending effect | 112.0 ± 4.6 | 25.4 ± 3.2 | 136.4 ± 3.3 | 7.5±0.9 | 6.7±1.2 | 5.4±1.1 | 3.9±1.1 | 1.9±0.3 | 100.7 ± 4.3 | 24.2 ± 3.2 | 123.9 ± 3.2 | 7.6±1.2 | 6.2±0.8 | time period of clinical symptomatological stage 3 [4]: 5.4±1.1 days; time period of clinical symptomatological stage 4 [4]: 3.5±0.5 days; time period of clinical symptomatological stage 5 [4]: 1.5±0.5 days
CC(C)(C)COc1ccc(-n2cc(C(=O)O)cn2)cc1C#N [compound (a), 1-[3-cyano-4-(2,2-dimethylpropoxy)phenyl]-1H-pyrazole-4-carboxylic acid] | extended period of respective stages with significant difference | significant extension of the disease period | significant delaying of the day of onset | significant extension of the survival period | extended period of stage 3 (P<0.05, Mann-Whitney's U test) and stage 4 (P<0.05, Mann-Whitney's U test) with significant differences | significant extension of the disease period | significant extension of the survival period | 113.0 ± 4.8 | 24.9 ± 3.1 | 136.9 ± 3.8 | 7.5±0.7 | 6.6±1.2 | 5.4±1.1 | 3.6±0.7 | 1.8±0.4 | 99.8 ± 2.4 | 23.9 ± 1.7 | 122.7 ± 2.1 | 7.3±0.7 | 6.0±0.7 | time period of clinical symptomatological stage 3 [4]: 5.3±0.9 days; time period of clinical symptomatological stage 4 [4]: 3.5±0.5 days; time period of clinical symptomatological stage 5 [4]: 1.8±0.4 days
N#Cc1cc(-c2n[nH]c(-c3ccncc3)n2)ccn1 [compound (b), 4-(5-pyridin-4-yl-1H-[1,2,4]triazol-3-yl)pyridine-2-carbonitrile] | extended period of the respective stages with significant difference | significant extension of the disease period | significant delaying of the day of onset | significant extension of the survival period |  |  |  | 111.6 ± 3.7 | 24.3 ± 3.4 | 134.9 ± 3.4 | 7.4±0.7 | 6.4±1.2 | 5.3±1.2 | 3.5±0.5 | 1.7±0.5 |  |  |  |  |  | 
